Assay results from paper PMC12073449, “Development of a Mechanism of Action-Reflective Cell-Based Reporter Gene Assay for Measuring Bioactivities of Therapeutic Glucagon-like Peptide-2 Analogues” (Molecules, 2025).
Ends that are not written are not given here.

System: HEK293-GLP-2R-Luc cells

## HGEGTFSSELATILDALAARDFINWLIATKITDKKKKKK-NH2 [glepaglutide]
Qvalue 1.61 × 10^−6
  log2 (TD/Ctrl) CPEB2: 1.107
  log2 (TD/Ctrl) GPAT3: 1.067
Qvalue 1.62 × 10^−11
  log2 (TD/Ctrl) LBH: 1.387
Qvalue 1.62 × 10^−22
  log2 (TD/Ctrl) CSRNP1: 2.05
Qvalue 1.63 × 10^−11
  log2 (TD/Ctrl) USP36: 1.039
Qvalue 1.71 × 10^−14
  log2 (TD/Ctrl) DNER: 3.018
Qvalue 1.72 × 10^−7
  log2 (TD/Ctrl) LOC102724428: 1.373
  log2 (TD/Ctrl) RELB: 1.9665
Qvalue 1.77 × 10^−4
  log2 (TD/Ctrl) BMF: −1.178
Qvalue 1.77 × 10^−11
  log2 (TD/Ctrl) PBX1: −1.095
Qvalue 1.80 × 10^−7
  log2 (TD/Ctrl) TNFAIP3: 1.227
Qvalue 1.83 × 10^−18
  log2 (TD/Ctrl) SCN9A: −1.8
Qvalue 1.84 × 10^−5
  log2 (TD/Ctrl) INPP5D: −2.417
Qvalue 1.87 × 10^−4
  log2 (TD/Ctrl) ICAM5: 1.744
Qvalue 1.87 × 10^−11
  log2 (TD/Ctrl) ZNF503: −1.2971
Qvalue 1.88 × 10^−5
  log2 (TD/Ctrl) MFSD2A: 1.193
Qvalue 1.89 × 10^−4
  log2 (TD/Ctrl) ADA: 1.023
Qvalue 1.91 × 10^−39
  log2 (TD/Ctrl) SV2C: 6.845
Qvalue 1.93 × 10^−15
  log2 (TD/Ctrl) ELL2: 1.192
Qvalue 1.93 × 10^−23
  log2 (TD/Ctrl) CD44: 2.115
Qvalue 1.97 × 10^−6
  log2 (TD/Ctrl) CYB5D2: −1.056
Qvalue 2.01 × 10^−5
  log2 (TD/Ctrl) DOK3: −1.636
Qvalue 2.01 × 10^−13
  log2 (TD/Ctrl) TFPI2: 2.377
Qvalue 2.02 × 10^−19
  log2 (TD/Ctrl) TUBB2A: 1.401
Qvalue 2.03 × 10^−14
  log2 (TD/Ctrl) SERTAD1: 1.452
Qvalue 2.06 × 10^−4
  log2 (TD/Ctrl) TRIM47: 1.231
Qvalue 2.06 × 10^−17
  log2 (TD/Ctrl) CD68: 2.012
Qvalue 2.07 × 10^−4
  log2 (TD/Ctrl) FRMPD4: −1.078
Qvalue 2.09 × 10^−50
  log2 (TD/Ctrl) ETV4: 3.646
Qvalue 2.12 × 10^−4
  log2 (TD/Ctrl) TUBA4A: 1.633
Qvalue 2.12 × 10^−19
  log2 (TD/Ctrl) SLC6A17: 2.784
Qvalue 2.21 × 10^−5
  log2 (TD/Ctrl) NAV2: 1.102
  log2 (TD/Ctrl) SOX2: −1.189
Qvalue 2.27 × 10^−19
  log2 (TD/Ctrl) IL6R: 1.742
Qvalue 2.28 × 10^−8
  log2 (TD/Ctrl) GPRC5A: 1.328
Qvalue 2.28 × 10^−9
  log2 (TD/Ctrl) SLC25A25: 1.117
Qvalue 2.29 × 10^−9
  log2 (TD/Ctrl) UPP1: 1.296
Qvalue 2.31 × 10^−9
  log2 (TD/Ctrl) OLIG2: 2.054
Qvalue 2.37 × 10^−34
  log2 (TD/Ctrl) TNC: 1.657
Qvalue 2.38 × 10^−8
  log2 (TD/Ctrl) GPR50: 2.002
Qvalue 2.40 × 10^−4
  log2 (TD/Ctrl) CPA4: 5.506
Qvalue 2.42 × 10^−6
  log2 (TD/Ctrl) FAM217B: −1.106
Qvalue 2.50 × 10^−4
  log2 (TD/Ctrl) CCDC9: 1.137
  log2 (TD/Ctrl) PLK3: 1.391
Qvalue 2.51 × 10^−19
  log2 (TD/Ctrl) TCIM: 7.037
Qvalue 2.55 × 10^−11
  log2 (TD/Ctrl) NRP1: −1.191
Qvalue 2.56 × 10^−11
  log2 (TD/Ctrl) EPHA2: 1.303
Qvalue 2.57 × 10^−12
  log2 (TD/Ctrl) DUSP4: 1.926
Qvalue 2.58 × 10^−27
  log2 (TD/Ctrl) MAFF: 3.639
Qvalue 2.58 × 10^−33
  log2 (TD/Ctrl) AMOT: −1.62
Qvalue 2.59 × 10^−23
  log2 (TD/Ctrl) TNFRSF12A: 2.183
Qvalue 2.68 × 10^−12
  log2 (TD/Ctrl) ZFP36: 1.676
Qvalue 2.71 × 10^−4
  log2 (TD/Ctrl) ARL14: 3.565
Qvalue 2.71 × 10^−23
  log2 (TD/Ctrl) JUNB: 2.192
Qvalue 2.74 × 10^−4
  log2 (TD/Ctrl) C1GALT1C1: −1.022
Qvalue 2.76 × 10^−6
  log2 (TD/Ctrl) UBALD2: 1.053
Qvalue 2.82 × 10^−4
  log2 (TD/Ctrl) ZNF33B: −1.021
Qvalue 2.87 × 10^−4
  log2 (TD/Ctrl) YPEL4: 2.621
Qvalue 2.87 × 10^−7
  log2 (TD/Ctrl) WNT5A: −1.332
Qvalue 2.88 × 10^−7
  log2 (TD/Ctrl) FLNC: 1.243
Qvalue 2.91 × 10^−8
  log2 (TD/Ctrl) NFIL3: 1.177
Qvalue 2.97 × 10^−31
  log2 (TD/Ctrl) TXNIP: −1.9141
Qvalue 2.98 × 10^−32
  log2 (TD/Ctrl) GLA: 1.68
Qvalue 3.01 × 10^−4
  log2 (TD/Ctrl) VAV1: 1.198
Qvalue 3.01 × 10^−9
  log2 (TD/Ctrl) RGS2: 1.337
Qvalue 3.01 × 10^−13
  log2 (TD/Ctrl) NREP: −1.339
Qvalue 3.15 × 10^−7
  log2 (TD/Ctrl) B3GAT1: 1.485
  log2 (TD/Ctrl) OLFM2: 1.732
Qvalue 3.17 × 10^−4
  log2 (TD/Ctrl) IL15RA: 1.677
Qvalue 3.27 × 10^−6
  log2 (TD/Ctrl) TNFRSF9: 1.903
Qvalue 3.31 × 10^−6
  log2 (TD/Ctrl) RASD1: 2.273
Qvalue 3.35 × 10^−6
  log2 (TD/Ctrl) TSC22D3: 1.67
Qvalue 3.37 × 10^−6
  log2 (TD/Ctrl) MSANTD3-TMEFF1: 1.009
Qvalue 3.39 × 10^−5
  log2 (TD/Ctrl) SKIDA1: −1.407
Qvalue 3.44 × 10^−6
  log2 (TD/Ctrl) USH1C: 2.547
Qvalue 3.45 × 10^−5
  log2 (TD/Ctrl) TMEM231: 1.1218
Qvalue 3.45 × 10^−9
  log2 (TD/Ctrl) COL12A1: 1.157
Qvalue 3.50 × 10^−4
  log2 (TD/Ctrl) BEGAIN: 1.974
Qvalue 3.51 × 10^−4
  log2 (TD/Ctrl) PHLDA2: 1.79
Qvalue 3.52 × 10^−9
  log2 (TD/Ctrl) PCDH7: −1.185
Qvalue 3.54 × 10^−4
  log2 (TD/Ctrl) ULBP2: 1.312
Qvalue 3.56 × 10^−4
  log2 (TD/Ctrl) PHF21B: 1.711
Qvalue 3.59 × 10^−15
  log2 (TD/Ctrl) JUN: 1.216
Qvalue 3.61 × 10^−6
  log2 (TD/Ctrl) PIM1: 1.177
Qvalue 3.63 × 10^−4
  log2 (TD/Ctrl) CSGALNACT1: 2.392
Qvalue 3.74 × 10^−4
  log2 (TD/Ctrl) MN1: 1.348
Qvalue 3.77 × 10^−12
  log2 (TD/Ctrl) ATF3: 2.527
Qvalue 3.78 × 10^−13
  log2 (TD/Ctrl) CASP9: 1.439
Qvalue 3.88 × 10^−22
  log2 (TD/Ctrl) C11orf96: 4.461
Qvalue 3.94 × 10^−5
  log2 (TD/Ctrl) FHL3: 1.045
Qvalue 4.00 × 10^−5
  log2 (TD/Ctrl) MRC2: 1.244
Qvalue 4.00 × 10^−6
  log2 (TD/Ctrl) SH2D3C: 2.239
